From US6525059B1, “Substituted pyrazoles as p38 kinase inhibitors” (G. D. Searle & Company, priority 1998, dated 2003)
Read-outs that look alike come from different tables or passages of the source.

How the values were obtained:
human p38 kinase alpha = biological target: T1, human p38 kinase alpha (Homo sapiens, UniProt Q16539); test: p38 kinase in vitro assay, phosphorylation of biotinylated PHAS-I with gamma 32P-ATP; assay type: biochemical; conditions: for inhibition at 1 µM: read-out: P38 alpha kinase % inhib @ conc.
T1 construct: The coding region of the human p38a cDNA was obtained by PCR-amplification from RNA isolated from the human monocyte cell line THP.1; GST (N); made in house; host or cells: E. coli DH10B
T1 sequence (Q16539 whole entry): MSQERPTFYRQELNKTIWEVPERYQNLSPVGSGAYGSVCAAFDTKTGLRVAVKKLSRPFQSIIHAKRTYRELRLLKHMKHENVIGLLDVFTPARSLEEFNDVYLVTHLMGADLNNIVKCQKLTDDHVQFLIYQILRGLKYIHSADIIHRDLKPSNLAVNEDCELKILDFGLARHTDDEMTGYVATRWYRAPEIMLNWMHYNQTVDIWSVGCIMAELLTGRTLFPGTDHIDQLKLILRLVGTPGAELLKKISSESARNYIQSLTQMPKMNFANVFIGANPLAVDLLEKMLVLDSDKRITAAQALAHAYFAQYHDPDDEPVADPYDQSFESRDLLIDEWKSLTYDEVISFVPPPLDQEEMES
Summary of the method: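 MKK6-activated human p38α phosphorylates biotinylated PHAS-I with γ-32P-ATP in 25 mM HEPES pH 7.5, 10 mM Mg acetate, 50 μM unlabeled ATP, 1% DMSO, 30 °C for 1 h or overnight. Compounds at 100–0.001 μM (10-fold steps, triplicate); substrate captured on streptavidin filter plates and counted by scintillation.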

TNF-α = test: LPS stimulation of TNF production by U937 cells; assay type: cell-based, human; conditions: for inhibition at 1 µM: U-937, @ 1.0 uM, read-out: U937 Cell % inhib @ conc.
Procedure: Fifty million cells in 100 ml media were induced to terminal monocytic differentiation by 24 hour incubation with 20 ng/ml phorbol 12-myristate 13-acetate (Sigma). The cells were washed by centrifugation (200×g for 5 min) and resuspended in 100 ml fresh medium. After 24-48 hours, the cells were harvested, centrifuged, and resuspended in culture medium at 2 million cells/ml.
Compounds were prepared as 10 mM stock solutions in DMSO and diluted in culture medium to yield a final DMSO concentration of 0.1% in the cell assay. LPS (E coli, 100 ng/ml final concentration) was then added at a volume of 0.02 ml. After 4 hour incubation at 37° C., the amount of TNF-α released in the culture medium was quantitated by ELISA. Inhibitory potency is expressed as IC50 (μM).
In vitro whole cell assay for measuring the ability of the compounds to inhibit TNF production in human U937 cells stimulated with LPS are shown in the column identified as: […]

[1] = p38α in vitro, PHAS-I assay procedure, read-out: p38^1 IC50
[2] = Homo sapiens, U-937, LPS-stimulated U937 cells, read-out: U937 IC50
[3] = read-out: P38 alpha kinase IC50
[4] = Homo sapiens, U-937, TNF production, LPS-stimulated human U937 cells, read-out: U937 Cell IC50

IC50 (TNF-α; [4]) | inhibition at 1 µM (human p38 kinase alpha; @ 1.0 uM) | Compound | inhibition at 1 µM (TNF-α; Homo sapiens) | also measured
 |  | CCN(CC)CCn1cc(-c2ccnc(F)c2)c(-c2ccc(F)cc2)n1 [Example A-278, N,N-diethyl-3-(4-fluorophenyl)-4-(2-fluoro-4-pyridinyl)-1H-pyrazole-1-ethanamine] |  | IC50 (human p38 kinase alpha; [1]): 285 nM; IC50 (TNF-α; [2]): 2300 nM
 |  | CCN(CC)CCn1cc(-c2ccnc(NCc3ccc(F)cc3)c2)c(-c2ccc(F)cc2)n1 [Example A-279, 4-[1-[2-(diethylamino)ethyl]-3-(4-fluorophenyl)-1H-pyrazol-4-yl]-N-[(4-fluorophenyl)methyl]-2-pyridinamine] |  | IC50 (human p38 kinase alpha; [1]): 5 nM; IC50 (TNF-α; [2]): 700 nM
 |  | OCCCNc1cc(-c2c[nH]nc2-c2ccc(F)cc2)ccn1 [Example A-282, 3-[[4-[3-(4-fluorophenyl)-1H-pyrazol-4-yl]-2-pyridinyl]amino]-1-propanol] |  | IC50 (human p38 kinase alpha; [1]): 45 nM; IC50 (TNF-α; [2]): 97.3 nM
 |  | CCN(CC)CCn1cc(-c2ccncc2)c(-c2ccc(F)cc2)n1 [Example A-284, N,N-diethyl-3-(4-fluorophenyl)-4-(4-pyridinyl)-1H-pyrazole-1-ethanamine] |  | IC50 (human p38 kinase alpha; [1]): 980 nM; IC50 (TNF-α; [2]): 509 nM
 |  | Fc1ccc(-c2n[nH]c(NCCCN3CCOCC3)c2-c2ccncc2)cc1 [Example A-286, N-[5-(4-fluorophenyl)-4-(4-pyridinyl)-1H-pyrazol-3-yl]-4-morpholinepropanamine] |  | IC50 (human p38 kinase alpha; [1]): 57 nM; IC50 (TNF-α; [2]): 90 nM
 |  | CN(C)CCCNc1[nH]nc(-c2ccc(F)cc2)c1-c1ccncc1 [Example A-287, N′-[5-(4-fluorophenyl)-4-(4-pyridinyl)-1H-pyrazol-3-yl]-N,N-dimethyl-1,3-propanediamine] |  | IC50 (human p38 kinase alpha; [1]): 41 nM; IC50 (TNF-α; [2]): 270 nM
 |  | C#CCNc1[nH]nc(-c2ccc(F)cc2)c1-c1ccncc1 [Example A-288, 5-(4-fluorophenyl)-N-2-propynyl-4-(4-pyridinyl)-1H-pyrazol-3-amine] |  | IC50 (human p38 kinase alpha; [1]): 17 nM; IC50 (TNF-α; [2]): 300 nM
 |  | Fc1ccc(-c2n[nH]cc2-c2ccnc3ccccc23)cc1 [Example A-291] |  | IC50 (human p38 kinase alpha; [1]): 388 nM; IC50 (TNF-α; [2]): 1130 nM
 |  | COC(=O)CNc1n[nH]c(-c2ccc(F)cc2)c1-c1ccncc1 [Example A-292, N-[5-(4-fluorophenyl)-4-(4-pyridinyl)-1H-pyrazol-3-yl]glycine methyl ester] |  | IC50 (human p38 kinase alpha; [1]): 1150 nM; IC50 (TNF-α; [2]): > 10000 nM
 |  | C#CCn1cc(-c2ccncc2)c(-c2ccc(F)cc2)n1 [Example A-294, 4-[3-(4-fluorophenyl)-1-(2-propynyl)-1H-pyrazol-4-yl]pyridine] |  | IC50 (human p38 kinase alpha; [1]): 15 nM; IC50 (TNF-α; [2]): 500 nM
 |  | C#CCn1ncc(-c2ccncc2)c1-c1ccc(F)cc1 [Example A-295, 4-[5-(4-fluorophenyl)-1-(2-propynyl)-1H-pyrazol-4-yl]pyridine] |  | IC50 (human p38 kinase alpha; [1]): 7660 nM; IC50 (TNF-α; [2]): > 10000 nM
 |  | Clc1ccc(-c2n[nH]cc2-c2ccncc2)cc1Cl [Example A-297, 4-[3-(3,4-dichlorophenyl)-1H-pyrazol-4-yl]pyridine] |  | IC50 (human p38 kinase alpha; [1]): 520 nM; IC50 (TNF-α; [2]): 170 nM
720 nM |  | CC(C)COC(=O)NCc1[nH]nc(-c2ccc(F)cc2)c1-c1ccncc1 [Example B-0009] |  | IC50 (human p38 kinase alpha; [3]): 40 nM
650 nM |  | CC(C)C(=O)NCc1[nH]nc(-c2ccc(F)cc2)c1-c1ccncc1 [Example B-0010] |  | IC50 (human p38 kinase alpha; [3]): 520 nM
4470 nM |  | COc1ccccc1C(=O)NCc1[nH]nc(-c2ccc(F)cc2)c1-c1ccncc1 [Example B-0011] |  | IC50 (human p38 kinase alpha; [3]): 30 nM
 |  | C=CCOC(=O)NCc1[nH]nc(-c2ccc(F)cc2)c1-c1ccncc1 [Example B-0033] |  | P38 alpha kinase % inhib @ conc. (human p38 kinase alpha; @ 1.0 uM): 97.0% @ 1.0 uM; IC50 (TNF-α; TNF production, LPS-stimulated human U937 cells, read-out: U937 Cell IC50): 10000 nM
540 nM |  | CC(=O)OC(C)(C)C(=O)NCc1[nH]nc(-c2ccc(F)cc2)c1-c1ccncc1 [Example B-0043] |  | IC50 (human p38 kinase alpha; [3]): 220 nM
190 nM |  | CC(=O)NCc1[nH]nc(-c2ccc(F)cc2)c1-c1ccncc1 [Example B-0044] |  | IC50 (human p38 kinase alpha; [3]): 140 nM
 | 92% | O=C(NCc1[nH]nc(-c2ccc(F)cc2)c1-c1ccncc1)c1ccc(Cl)nc1 [Example B-0052] | 15% | 
> 1000 nM | 93% | Cc1onc(-c2c(F)cccc2Cl)c1C(=O)NCc1[nH]nc(-c2ccc(F)cc2)c1-c1ccncc1 [Example B-0055] |  | 
 | 96% | Cc1onc(-c2ccccc2Cl)c1C(=O)NCc1[nH]nc(-c2ccc(F)cc2)c1-c1ccncc1 [Example B-0056] | 21% | 
 | 96% | CCCC(CCC)C(=O)NCc1[nH]nc(-c2ccc(F)cc2)c1-c1ccncc1 [Example B-0057] | 29% | 
 | 79% | O=C(NCc1[nH]nc(-c2ccc(F)cc2)c1-c1ccncc1)c1sc2ccccc2c1Cl [Example B-0058] | 18% | 
 | 73% | O=C(NCc1[nH]nc(-c2ccc(F)cc2)c1-c1ccncc1)c1cccc(OC(F)(F)F)c1 [Example B-0060] | 22% | 

IC50 (TNF-α; [4]) | inhibition at 1 µM (human p38 kinase alpha; @ 1.0 uM) | Compound | inhibition at 1 µM (TNF-α; Homo sapiens) | also measured
 | 90% | CCCCCCCC(=O)NCc1[nH]nc(-c2ccc(F)cc2)c1-c1ccncc1 [Example B-0064] | 4% | 
 | 94% | O=C(NCc1[nH]nc(-c2ccc(F)cc2)c1-c1ccncc1)C1CCC1 [Example B-0066] | 28% | 
 | 72% | COc1ccc(C(=O)NCc2[nH]nc(-c3ccc(F)cc3)c2-c2ccncc2)cc1OC [Example B-0068] | 22% | 
 | 86% | O=C(NCc1[nH]nc(-c2ccc(F)cc2)c1-c1ccncc1)c1ccc(Cl)c(Cl)c1 [Example B-0071] | 31% | 
 | 91% | O=C(NCc1[nH]nc(-c2ccc(F)cc2)c1-c1ccncc1)c1cccc(Br)c1 [Example B-0073] | 24% | 
 | 58% | O=C(CCc1ccccc1)NCc1[nH]nc(-c2ccc(F)cc2)c1-c1ccncc1 [Example B-0076] | 21% | 
10000 nM |  | COC(=O)CCC(=O)NCc1[nH]nc(-c2ccc(F)cc2)c1-c1ccncc1 [Example B-0077] |  | IC50 (human p38 kinase alpha; [3]): 800 nM
 | 80% | COC(=O)CCCC(=O)NCc1[nH]nc(-c2ccc(F)cc2)c1-c1ccncc1 [Example B-0078] | 20% | 
 | 93% | O=C(NCc1[nH]nc(-c2ccc(F)cc2)c1-c1ccncc1)C1CCCC1 [Example B-0079] | 13% | 
 | 92% | CSCCC(=O)NCc1[nH]nc(-c2ccc(F)cc2)c1-c1ccncc1 [Example B-0081] | 13% | 
6510 nM |  | CC(=O)O[C@@H](C)C(=O)NCc1[nH]nc(-c2ccc(F)cc2)c1-c1ccncc1 [Example B-0083] |  | IC50 (human p38 kinase alpha; [3]): 220 nM
 | 83% | COc1cc(C(=O)NCc2[nH]nc(-c3ccc(F)cc3)c2-c2ccncc2)cc(OC)c1OC [Example B-0085] | 21% | 
 | 96% | COC(=O)CCCCCCC(=O)NCc1[nH]nc(-c2ccc(F)cc2)c1-c1ccncc1 [Example B-0088] | 9% | 
3330 nM |  | O=C(NCc1[nH]nc(-c2ccc(F)cc2)c1-c1ccncc1)C1CC1 [Example B-0089] |  | IC50 (human p38 kinase alpha; [3]): 40 nM
 | 91% | CCOC(=O)CCCC(=O)NCc1[nH]nc(-c2ccc(F)cc2)c1-c1ccncc1 [Example B-0096] | 22% | 
> 1000 nM | 43% | CC(C)(C)c1ccc(S(=O)(=O)NCc2[nH]nc(-c3ccc(F)cc3)c2-c2ccncc2)cc1 [Example B-0099] |  | 
5000 nM | 75% | CCCCS(=O)(=O)NCc1[nH]nc(-c2ccc(F)cc2)c1-c1ccncc1 [Example B-0100] |  | 
 | 81% | O=[N+]([O-])c1cc(S(=O)(=O)NCc2[nH]nc(-c3ccc(F)cc3)c2-c2ccncc2)ccc1Cl [Example B-0102] | 15% | 
 | 71% | O=S(=O)(NCc1[nH]nc(-c2ccc(F)cc2)c1-c1ccncc1)c1cc(Cl)cc(Cl)c1O [Example B-0103] | 6% | 
2780 nM | 56% | O=S(=O)(NCc1[nH]nc(-c2ccc(F)cc2)c1-c1ccncc1)c1ccc(F)cc1 [Example B-0104] |  | 
5000 nM | 78% | CCS(=O)(=O)NCc1[nH]nc(-c2ccc(F)cc2)c1-c1ccncc1 [Example B-0105] |  | 
5000 nM | 62% | CC(C)S(=O)(=O)NCc1[nH]nc(-c2ccc(F)cc2)c1-c1ccncc1 [Example B-0106] |  | 
5000 nM |  | CS(=O)(=O)NCc1[nH]nc(-c2ccc(F)cc2)c1-c1ccncc1 [Example B-0107] |  | IC50 (human p38 kinase alpha; [3]): 270 nM
4850 nM | 61% | COC(=O)c1ccccc1S(=O)(=O)NCc1[nH]nc(-c2ccc(F)cc2)c1-c1ccncc1 [Example B-0108] |  | 
